Data reported in patent US9012178B2, “Dipeptides to enhance yield and viability from cell cultures” (Amgen Inc., priority 2010, dated 2015).
In brackets after ≈: the same amount, converted by molar mass. Where a SMILES comes first, the peptide text is derived from it.

Key:
CHO cell line C = test: Fed-batch shake flask production culture in serum-free defined medium: titer, viability, growth, metabolic profiles; format: cell-based, Chinese hamster; details: for day 11 titer: cell line C, culture period 11 days (Example 4, FIG. 5)
Procedure: (§1) Materials and Methods: Dipeptides were purchased from Bachem (Torrance, Calif.). Each dipeptide was dissolved in water for preparation of concentrated stock solution (100 mg/mL), followed by sterile filtration using Spin-X® filter unit (Corning Inc., Corning, N.Y.).
(§2) On Day 0, prior to inoculation of production cell lines, appropriate volumes of concentrated dipeptide stock solution were added to serum-free defined production medium to bring the final dipeptide concentration at 0.5-2.0 g/L. For controls, the same volume of water was added. Cells were inoculated at 5×10^5 cells/mL with the final culture volume of 50 mL in 250 mL flasks. The shaker flasks cultures were grown in the incubator at 36° C., with 5% CO2 and agitation rate of 160 rpm.
(§3) Cultures were fed with bolus defined feed media on Days 3, 6, and 8 with the feed volume of 5-6% on Day 3, 9% on Day 6 and 9% on Day 8. Cultures were stopped and harvested on Day 11. However, if the culture viability on Day 11 was >70%, culture duration was extended beyond day 11 by introducing 4th feed on Day 11 and 5th feed on day 13 if necessary. Feed volume on Day 11 ranged from 5% to 8%, depending on the culture performance. Day 13 feed ranged from 2.5% to 3.0%. Glucose was fed as needed with typical target concentration of 7-8 g/L.
(§4) On selective days during the production run, small volumes of cultures were taken out to assess viable cell density and % viability using the CEDEX cell counter (Roche Innovatis AG). Titer was also determined on collected samples, using the high-throughput HPLC analytical method.
Materials and Methods: CHO cell line C was cultured as in Example 2. The dipeptides tested were Tyr-Lys, Thr-Phe, His-Gly, Tyr-Ala, Gly-His, Tyr-His, Tyr-Val, and a combination of Tyr-His and Thr-Phe. The culture period was 11 days, at which point titer and viability were assessed.
Materials and Methods: CHO cell line C was used for this experiment, and cultured as in Example 2. Titer, viability, viable cell density, specific productivity, and cell diameter were determined each day from day 6 to 13 or 14 of cell culture. Tyr-His dipeptide was tested at 0.5 g/L and 1 g/L, and compared to the addition of no dipeptide.

CHO cells = test: Recombinant protein expression from CHO cells in chemically defined medium (summary statements); format: cell-based, Chinese hamster; details: two different CHO cell lines expressing two different recombinant antibodies
CHO cell line A = test: Fed-batch shake flask production culture in serum-free defined medium: titer and viability; format: cell-based, Chinese hamster; details: culture period 13 to 14 days
Procedure: as §1, §2, §3, §4
Materials and Methods: CHO cell line A was cultured as in Example 2. The effect of dipeptide Ala-His (added at 1 g/L) was compared to no added dipeptide (control) and dipeptide His-Gly. The culture period was 13 to 14 days, at which point titer and viability were assessed.

[1] = Solubility of tyrosine-containing dipeptides
CHO cell line D = test: 6-day batch culture in serum-free defined production medium: titer and viability; format: cell-based, Chinese hamster; details: 1 to 4 g/L, 6 days batch culture; for titer: over the negative control
Procedure: Materials and Methods: CHO cell line D, which produces a fully human recombinant antibody, was used for this experiment. Cells were inoculated at 2×10^6 cells/mL with a final culture volume of 2.0 mL into serum-free defined production medium. Experimental samples contained the dipeptides His-Glu, Glu-His, His-Ser, and His-Gln from 1 to 4 g/L. Control wells were set up containing either no added dipeptide as a negative control, or containing peptone at 10 g/L as a positive control. The cultures were incubated as a batch culture for 6 days, at which point the cells were harvested and titer and viability determined.

[2] = reference #1; cited from earlier work
[3] = supplement by itself in serum-free, peptone-free production medium

| Compound | day 11 titer (CHO cell line C) | viability (CHO cell line D) | titer (CHO cell line D) | also measured |
| --- | --- | --- | --- | --- |
| Tyr-Val | significantly improved titer | – | – | – |
| His-Gly | moderately improved titer | – | – | productivity and culture performance (CHO cells): improve productivity and culture performance; viability (CHO cell line A; Ala-His added at 1 g/L): better at maintaining viability; titer improvement as compared to control (CHO cell line A): more than 10% |
| CSCC[C@H](N)C(=O)N[C@@H](Cc1ccc(O)cc1)C(=O)O [Met-Tyr] (H-Met-Tyr-OH; N-terminus and C-terminus assumed) | – | – | – | Solubility tested [1]: Not soluble |
| His-Glu | – | significantly improved | not significantly increased | – |
| His-Ser | – | significantly improved | not significantly increased | – |
| Glu-His | – | significantly improved | not significantly increased | – |
| N[C@@H](Cc1ccc(O)cc1)C(=O)N[C@@H](Cc1c[nH]cn1)C(=O)O [Tyr-His] (H-Tyr-His-OH; N-terminus and C-terminus assumed) | – | – | – | Solubility tested [1]: readily soluble; Solubility (g/L)- ref. #1 [2]: 100 g/L (≈ 314 mM) |
| His-Gln | – | significantly improved | not significantly increased | – |
| NCCCC[C@H](NC(=O)[C@@H](N)Cc1ccc(O)cc1)C(=O)O [Tyr-Lys] (H-Tyr-Lys-OH; N-terminus and C-terminus assumed) | – | – | – | Solubility tested [1]: readily soluble; Solubility (g/L)- ref. #1 [2]: 81 g/L (≈ 262 mM) |
| Ala-His | – | – | – | viability (CHO cell line A; Ala-His added at 1 g/L): maintain increased viability; titer (CHO cell line A; Ala-His added at 1 g/L, vs control): also improved titer, but not as much as His-Gly |
| Gly-His | adversely affected titer | – | – | productivity and culture performance (CHO cells): negative effect |
| Thr-Phe | little to no effect | – | – | recombinant protein production (CHO cell line C; [3]): little to no effect; viability (CHO cell line C; [3]): little to no effect |
| Tyr-Ala | significantly improved titer | – | – | – |
